Data set [1] deals with pancreatic cancer cell lines (e.g. MIA PaCa-2). In words: Cell based assay, cell viability (CellTiter-Glo), pancreatic cancer cell lines. The conditions noted are these: Homo sapiens. The gist of the method:
(§1)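 ATP content as viability surrogate, luminescent read; 72 h compound, 0–2 μM final; cells plated 24 h prior.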

Data set [2] relates to blood cancer cell lines (e.g. HL-60, Jurkat, Raji, Ramos, Daudi, MOLT-4). In words: Cell based assay, cell viability (CellTiter-Glo), blood cancer cell lines. The conditions noted are these: Homo sapiens. The gist of the method: as §1
The test system of data set [3] is RT4: human urinary bladder transitional cell papilloma. Kind of data set: Cell based assay, cytotoxicity in RT4 papilloma cells (selectivity). The conditions noted are these: Homo sapiens, RT-4; RT4 cells.
The test system of data set [4] is zebrafish. Kind of data set: Cardiotoxicity experiment using zebrafish (heart rate, lethality). The conditions noted are these: 5 uM, n = 10. It counts as in vivo.
Data set [5] relates to UM-UC-3: human urinary bladder transitional cell carcinoma. In words: Cell based assay, cytotoxicity in UM-UC-3 cells. Conditions: UMUC3, 72 hours. As for the experimental part: Commercially available bladder cancer, prostate cancer, lung cancer, breast cancer, blood cancer, pancreatic cancer, colorectal cancer, brain cancer, neuroblastoma, melanoma, liver cancer, cervical carcinoma, ovarian cancer, renal cancer, and papilloma cell lines were each treated with trypsin-EDTA and cultured, followed by being seeded in each well of a 96 well plate. After 24 hours of treatment at constant temperature, the respective cells were treated with the candidate compound so that a final concentration became 0 to 2 μM. The treated cells were additionally cultured for 72 hours, and cell viability was measured by using an ATP detection method (CellTiter-Glo® Luminescent Cell Viability Assay, Promega).

Data set [6] has as its system human prostate cancer cell line (DU145). In words: Tumor growth inhibition in animal model using DU145. It counts as in vivo. Conditions: intraperitoneally administered twice a week, DU145 animal model (FIG. 2).
[7] abbreviates: pancreatic cancer cell line AsPC-1, 72 hours, read-out: IC50, AsPC-1.
The mark [8] stands for this setting: pancreatic cancer cell line BxPC-3, 72 hours, read-out: IC50, BxPC-3.
Setting [9] is: pancreatic cancer cell line CFPAC-1, 72 hours, read-out: IC50, CFPAC-1.
[10] abbreviates: pancreatic cancer cell line Capan-1, 72 hours, read-out: IC50, Capan-1.
Setting [11] is: pancreatic cancer cell line Capan-2, 72 hours, read-out: IC50, Capan-2.
[12] abbreviates: pancreatic cancer cell line MIA PaCa-2, 72 hours, read-out: IC50, MIA PaCa-2.
Setting [13] is: pancreatic cancer cell line PANC-1, 72 hours, read-out: IC50, PANC-1.
The mark [14] stands for this setting: MV4-11, blood cancer cell line MV-4-11, 72 hours, read-out: IC50, MV-4-11.
Where [15] appears, read: blood cancer cell line Daudi, 72 hours, read-out: IC50, Daudi.
[16] abbreviates: blood cancer cell line HL-60, 72 hours, read-out: IC50, HL-60.
The mark [17] stands for this setting: blood cancer cell line Jurkat, 72 hours, read-out: IC50, Jurkat.
Where [18] appears, read: blood cancer cell line MOLT-4, 72 hours, read-out: IC50, MOLT-4.
The mark [19] stands for this setting: blood cancer cell line Raji, 72 hours, read-out: IC50, Raji.
Setting [20] is: blood cancer cell line Ramos (RA 1), 72 hours, read-out: IC50, Ramos (RA 1).
[21] abbreviates: blood cancer cell line U-937, 72 hours, read-out: IC50, U-937.

Read-outs that look alike come from different tables or passages of the source.

For the compound `CC(=O)c1c([S+]([O-])Cc2ccc([N+](=O)[O-])cc2)[nH]c2c(Br)ccc(Cl)c2c1=O` (stereo not drawn) [Compound 33, 3-acetyl-8-bromo-5-chloro-2-((4-nitrobenzyl)sulfinyl)quinolin-4(1H)-one], the IC50 is > 2 µM in data set [1] (setting [7]); > 2 µM in data set [1] (setting [8]); > 10 µM in data set [1] (setting [9]); > 2 µM in data set [1] (setting [10]); > 2 µM in data set [1] (setting [11]); 1.04 µM in data set [1] (setting [12]). The IC50 in data set [1] (setting [13]) is > 2 µM; in data set [2] (setting [14]), 1.28 µM; in data set [2] (setting [15]) it was > 2 µM; in data set [2] (setting [16]), 1.77 µM; in data set [2] (setting [17]) it was 1.03 µM; in data set [2] (setting [18]), 1.44 µM. The IC50 is 0.97 µM in data set [2] (setting [19]), > 2 µM in data set [2] (setting [20]), > 2 µM in data set [2] (setting [21]) and > 10 µM in data set [3]. Further, in data set [4] (mean), the “Changes (%) in heart rate” value was 97.3%. The Lethality in data set [4] is 0/10.
Turning to `CC(=O)c1c([S+]([O-])Cc2ccc(SC(F)(F)F)cc2)[nH]c2c(Br)ccc(Cl)c2c1=O` (stereo not drawn) [Compound 56, 3-acetyl-8-bromo-5-chloro-2-((4-((trifluoromethyl)thio)benzyl)sulfinyl)quinolin-4(1H)-one], the IC50 in data set [1] (setting [7]) is > 2 µM; in data set [1] (setting [8]), > 2 µM; in data set [1] (setting [9]), > 10 µM; in data set [1] (setting [10]), > 2 µM; in data set [1] (setting [11]), > 2 µM; in data set [1] (setting [12]), 1.37 µM. The IC50 in data set [1] (setting [13]) was > 2 µM; in data set [2] (setting [14]), 1.5 µM; in data set [2] (setting [15]), 1.25 µM; in data set [2] (setting [16]), 1.95 µM; in data set [2] (setting [17]), 1.06 µM; in data set [2] (setting [18]), 1.66 µM. The IC50 was 1.12 µM in data set [2] (setting [19]); 1.86 µM in data set [2] (setting [20]); 1.75 µM in data set [2] (setting [21]); > 10 µM in data set [3]; 1.25 µM in data set [5]. In data set [6], the “Effect of inhibiting tumor growth” value is listed as “effect of inhibiting tumor growth”.
As for `Cc1cc(C[S+]([O-])c2[nH]c3c(Cl)ccc(Cl)c3c(=O)c2C(=O)C(C)C)no1` (stereo not drawn) [Compound 86, 5,8-dichloro-3-isobutyryl-2-(((5-methylisoxazol-3-yl)methyl)sulfinyl)quinolin-4(1H)-one], the IC50 was 1.28 µM in data set [1] (setting [7]); > 2 µM in data set [1] (setting [8]); > 10 µM in data set [1] (setting [9]); 1.26 µM in data set [1] (setting [10]); > 2 µM in data set [1] (setting [11]); 0.64 µM in data set [1] (setting [12]). The IC50 in data set [1] (setting [13]) is > 2 µM; in data set [2] (setting [14]), 0.71 µM; in data set [2] (setting [15]) it was 0.65 µM; in data set [2] (setting [16]), 1.38 µM; in data set [2] (setting [17]), 0.55 µM; in data set [2] (setting [18]), 1.01 µM. The IC50 in data set [2] (setting [19]) was 0.82 µM; in data set [2] (setting [20]), 0.46 µM; in data set [2] (setting [21]), 1.23 µM; in data set [3], > 10 µM.
In the case of `COC(=O)c1ccc(C[S+]([O-])c2[nH]c3c(Cl)ccc(Cl)c3c(=O)c2C(C)=O)o1` (stereo not drawn) [Compound 89, methyl 5-(((3-acetyl-5,8-dichloro-4-oxo-1,4-dihydroquinolin-2-yl)sulfinyl)methyl)furan-2-carboxylate], the IC50 in data set [1] (setting [7]) is > 2 µM; in data set [1] (setting [8]), > 2 µM; in data set [1] (setting [9]), > 10 µM; in data set [1] (setting [10]), > 2 µM; in data set [1] (setting [11]), > 2 µM; in data set [1] (setting [12]), 1.41 µM. Further, the IC50 in data set [1] (setting [13]) is > 2 µM; in data set [2] (setting [14]), 1.75 µM; in data set [2] (setting [15]) it was > 2 µM; in data set [2] (setting [16]), > 2 µM; in data set [2] (setting [17]), 1.38 µM; in data set [2] (setting [18]), > 2 µM. Besides, the 50% inhibitory concentration (IC50) in data set [2] (setting [19]) was > 2 µM; in data set [2] (setting [20]), 1.71 µM; in data set [2] (setting [21]), > 2 µM; in data set [3], > 10 µM.
`Cc1cc(C[S+]([O-])c2[nH]c3c(Br)ccc(Cl)c3c(=O)c2C(=O)C(C)C)no1` (stereo not drawn) [Compound 95, 8-bromo-5-chloro-3-isobutyryl-2-(((5-methylisoxazol-3-yl)methyl)sulfinyl)quinolin-4(1H)-one]: the IC50 is 1.06 µM in data set [1] (setting [7]); > 2 µM in data set [1] (setting [8]); > 10 µM in data set [1] (setting [9]); 1.25 µM in data set [1] (setting [10]); > 2 µM in data set [1] (setting [11]); 0.59 µM in data set [1] (setting [12]). Moreover, the IC50 is > 2 µM in data set [1] (setting [13]); 0.7 µM in data set [2] (setting [14]); 0.64 µM in data set [2] (setting [15]); 0.98 µM in data set [2] (setting [16]); 0.29 µM in data set [2] (setting [17]); 1.01 µM in data set [2] (setting [18]). Besides, the IC50 in data set [2] (setting [19]) is 1 µM; in data set [2] (setting [20]), 0.52 µM; in data set [2] (setting [21]), 1.06 µM; in data set [3], > 10 µM.

The record behind these values is US11464770B2, “Anticancer pharmaceutical composition” (NATIONAL CANCER CENTER, priority 2016, dated 2022).
